Source: ChEMBL document CHEMBL1938378, “Synthesis and evaluation of tetrahedral intermediate mimic inhibitors of 3-deoxy-d-manno-octulosonate 8-phosphate synthase” (Bioorg Med Chem Lett, 2012)

Columns and labels:
[1] = Competitive inhibition of Acidithiobacillus ferrooxidans KDO8P synthase using PEP as substrate after 10 to 15 mins by Michaelis-Menten equation
[2] = target: 2-dehydro-3-deoxyphosphooctonate aldolase (Neisseria meningitidis serogroup B (strain MC58), UniProt Q9JZ55); experiment: Competitive inhibition of Neisseria meningitidis serotype B strain MC58 ATCC BAA355 KDO8P synthase expressed in Escherichia coli BL21 (DE3) cells using PEP as substrate after 10 to 15 mins by Michaelis-Menten equation
[3] = Inhibition of Helicobacter pylori KDO8P
[4] = Inhibition of Escherichia coli KDO8P

Chain of 2-dehydro-3-deoxyphosphooctonate aldolase (Q9JZ55 whole entry): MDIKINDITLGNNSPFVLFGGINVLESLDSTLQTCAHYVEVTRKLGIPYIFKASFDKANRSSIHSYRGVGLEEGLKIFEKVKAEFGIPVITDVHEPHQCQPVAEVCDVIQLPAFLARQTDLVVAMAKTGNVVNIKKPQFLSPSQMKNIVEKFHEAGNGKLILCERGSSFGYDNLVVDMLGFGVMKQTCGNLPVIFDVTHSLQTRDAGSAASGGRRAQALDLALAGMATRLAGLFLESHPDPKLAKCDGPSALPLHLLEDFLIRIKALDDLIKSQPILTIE

Ki [1] | Ki [2] | IC50 [3] | Structure (SMILES) | Ki [4]
1000 µM | 1200 µM |  | C[C@H](OP(=O)(O)O)C(=O)O | 
20 µM | 7.9 µM |  | O=C(O)C(CCCCCCOP(=O)(O)O)OP(=O)(O)O (centres undefined) | 
 |  | 132 µM | O=C(O)CN(C[C@@H](O)[C@@H](O)[C@H](O)[C@H](O)COP(=O)(O)O)CP(=O)(O)O | 0.37 µM
390 µM | 870 µM |  | C[C@@H](OP(=O)(O)O)C(=O)O | 
540 µM | 1000 µM |  | O=C(O)C(CCCCCCO)OP(=O)(O)O (centres undefined) | 
190 µM | 270 µM |  | O=C(O)C(O)CCCCCCOP(=O)(O)O (centres undefined) | 

Structure (SMILES) | Ki [1] | Ki [2] | IC50 [3] | Ki [4]
O=C(O)CNCP(=O)(O)O [GLYPHOSATE] | 330 µM | 260 µM |  | 
